Data published in patent US9247750B2, “Polyenylcyclopropanecarboxylic esters with high insecticidal activity” (Endura S.P.A., priority 2007, dated 2016).

Tests used:
Format in all cases: in vivo
[1] = tested on: Culex quinquefasciatus; assay: Insecticide effectiveness in the vapour phase against mosquitoes, impregnated paper unit in 20 m^3 room (Example 5); settings: 5 mg/unit; for % mortality 24 h: 24th hour from start of test; for % Knock-down 8 h: at end of 8th hour; for Knock-down time KT10 / Knock-down time KT50 / Knock-down time KT90: average of 3 cages
Procedure: (§1) Test units consisting of a paper support 20 cm×10 cm in size were impregnated with the compound of example 3 and, for comparative purposes, with the reference compounds transfluthrin and metofluthrin, at an amount of 5.00 mg/unit for each compound (pure).
(§2) Using a common laboratory stand, the test unit was placed at a height of about 30 cm from the ground along one side of a 20 m^3 room (L 3.00 m×D 2.49 m×H 2.69 m). In order to homogenize the insecticidal air within the room, a small electric fan was placed on the floor diagonal to the surface of the unit, in the is nearest corner at a distance of about 50 cm from the unit. Three metal cages (L 8.4 cm×Ø 8.0 cm×mesh 1.0 mm) for every mosquito species, each containing 20 3-4 day old individuals of mixed sex, were placed along the other three sides of the room, at a height of 1.80 m from the ground and at a distance of 0.45 m from the respective walls. During the test the room was kept closed and temperature and humidity were controlled (T 23-26° C., RH 49-61%).
(§3) The fan was switched on and left on for 8 continuous hours. The times needed to reach 10%, 50% and 90% insect knock-down (KT10, KT50 and KT90, respectively) were recorded.
(§4) Every 2 hours and up to the 6th hour after the fan was switched on, new cages were introduced containing insects (set of 3 cages for each species).
(§5) At the end of the 8th hour, the percentage of insects knocked down in all the cages was determined, then the insects were removed from the room and transferred into an uncontaminated atmosphere within closed containers containing a sugary solution. The percentage mortality was recorded at the 24th hour from the start of the test.
(§6) The results obtained are summarized in tables 1 and 2 and the data are averages for the 3 cages.

[2] = tested on: Aedes aegypti; assay: as above; settings: 5 mg/unit; for % mortality 24 h: 24th hour from start of test; for % Knock-down 8 h: at end of 8th hour; for Knock-down time KT10 / Knock-down time KT50 / Knock-down time KT90: average of 3 cages
Procedure: as §1, §2, §3, §4, §5, §6

[3] = tested on: Blattella germanica; assay: Effectiveness of residual insecticide on surfaces (glazed tiles) against cockroaches (Example 6); settings: 50 mg/m^2 on glazed tiles, 24 h exposure
Procedure: Solutions of the compound of example 3 in acetone and, for comparison, of the reference compounds Transfluthrin and Metofluthrin were applied from a distance of 12 cm onto glazed tiles (Ostara model, 15×15 cm=225 cm^2) by means of a suitable glass sprayer, so as to obtain an applied amount of pure compound equal to 50 mg/m^2. After treatment the tiles were transferred to and maintained in a closed test room at controlled temperature and humidity (24-25° C., RH 50-60%). Glass rings (H 5.5 cm×Ø 9.5 cm), with their internal surface treated with talc, and each containing 5 cockroaches, were positioned at the centre of the tiles for each of the assessment times of 24 hours, 3, 7, 10 and 14 days following treatment. For each assessment day, the insects were maintained on the surface for 24 hours and the time (hours, minutes) necessary to attain 100% knock-down followed by death, or percentage knock-down at the end of 24 hours, were recorded.

[4] = tested on: Culex quinquefasciatus; assay: Insecticide effectiveness in the vapour phase against mosquitoes, impregnated paper unit in 20 m^3 room (Example 9); settings: 5 mg/unit; for % mortality 24 h: 24th hour from start of test; for % Knock-down 8 h: at end of 8th hour; for Knock-down time KT10 / Knock-down time KT50 / Knock-down time KT90: average of 3 cages
Procedure: as §2, with “Test units consisting of a paper support 20 cm×10 cm in size were impregnated with the compound of examples 3, 7 and 8 and, for comparative purposes, with the reference compounds transfluthrin and metofluthrin, at an amount of 5.00 mg/unit for each compound (pure). Using” for “Using”, “the” for “the is”, “49-61%). The fan was switched on and left on for 8 continuous hours. The times needed to reach 10%, 50% and 90% insect knock-down (KT10, KT50 and KT90, respectively) were recorded.” for “49-61%).”
as §4, §5, §6

[5] = tested on: Aedes aegypti; assay: as above; settings: 5 mg/unit; for % mortality 24 h: 24th hour from start of test; for % Knock-down 8 h: at end of 8th hour; for Knock-down time KT10 / Knock-down time KT50 / Knock-down time KT90: average of 3 cages
Procedure: as §2, with “Test units consisting of a paper support 20 cm×10 cm in size were impregnated with the compound of examples 3, 7 and 8 and, for comparative purposes, with the reference compounds transfluthrin and metofluthrin, at an amount of 5.00 mg/unit for each compound (pure). Using” for “Using”, “the” for “the is”, “49-61%). The fan was switched on and left on for 8 continuous hours. The times needed to reach 10%, 50% and 90% insect knock-down (KT10, KT50 and KT90, respectively) were recorded.” for “49-61%).”
as §4, §5, §6

## CC1(C)[C@H](C=C(Cl)Cl)[C@H]1C(=O)OCc1c(F)c(F)cc(F)c1F [Transfluthrin, transfluthrin]
[1]; insect exposure after 0 hours
  % mortality 24 h: 100%
  % Knock-down 8 h: 100%
  Knock-down time KT10: 27 min
  Knock-down time KT50: 37 min
  Knock-down time KT90: 44 min
[1]; insect exposure after 2 hours
  % mortality 24 h: 100%
  % Knock-down 8 h: 100%
  Knock-down time KT10: 7 min
  Knock-down time KT50: 14 min
  Knock-down time KT90: 20 min
[1]; insect exposure after 4 hours
  % mortality 24 h: 100%
  % Knock-down 8 h: 100%
  Knock-down time KT10: 9 min
  Knock-down time KT50: 17 min
  Knock-down time KT90: 22 min
[2]; insect exposure after 0 hours
  % mortality 24 h: 100%
  % Knock-down 8 h: 100%
  Knock-down time KT10: 21 min
  Knock-down time KT50: 26 min
  Knock-down time KT90: 36 min
[2]; insect exposure after 2 hours
  % mortality 24 h: 100%
  % Knock-down 8 h: 100%
  Knock-down time KT10: 5 min
  Knock-down time KT50: 9 min
  Knock-down time KT90: 12 min
[2]; insect exposure after 4 hours
  % mortality 24 h: 100%
  % Knock-down 8 h: 100%
  Knock-down time KT10: 4 min
  Knock-down time KT50: 7 min
  Knock-down time KT90: 10 min
[3]; 1 day after treatment
  percentage knock-down after 24 hours: 60%
[3]; 3 days after treatment
  percentage knock-down after 24 hours: 24 h 0%
[3]; 7 days after treatment
  percentage knock-down after 24 hours: 24 h 0%
[4]; insect exposure after 0 hours
  % mortality 24 h: 100%
  % Knock-down 8 h: 100%
  Knock-down time KT10: 31 min
  Knock-down time KT50: 42 min
  Knock-down time KT90: 55 min
[4]; insect exposure after 2 hours
  % mortality 24 h: 100%
  % Knock-down 8 h: 100%
  Knock-down time KT10: 16 min
  Knock-down time KT50: 25 min
  Knock-down time KT90: 34 min
[4]; insect exposure after 4 hours
  % mortality 24 h: 100%
  % Knock-down 8 h: 100%
  Knock-down time KT10: 11 min
  Knock-down time KT50: 16 min
  Knock-down time KT90: 24 min
[5]; insect exposure after 0 hours
  % mortality 24 h: 100%
  % Knock-down 8 h: 100%
  Knock-down time KT10: 21 min
  Knock-down time KT50: 26 min
  Knock-down time KT90: 35 min
[5]; insect exposure after 2 hours
  % mortality 24 h: 100%
  % Knock-down 8 h: 100%
  Knock-down time KT10: 7 min
  Knock-down time KT50: 9 min
  Knock-down time KT90: 12 min
[5]; insect exposure after 4 hours
  % mortality 24 h: 100%
  % Knock-down 8 h: 100%
  Knock-down time KT10: 6 min
  Knock-down time KT50: 9 min
  Knock-down time KT90: 14 min
